Test results published in patent US12303845B2, “Method for crystallization of active pharmaceutical ingredients” (Nanoform Finland Oyj, priority 2023, dated 2025).

Experiment: Permeability measurements (μFlux)
Format: in vitro ADME
Conditions: composition of the disclosure vs bulk ezetimibe, PAMPA membrane
Description: A μFlux instrument connected to the Rainbow instrument (Pion Inc UK Ltd, Forest Row, UK) was used to determine the passive permeability of API from different formulations. The suspensions were loaded to the donor chamber containing 10 mL of SGF (0.025 M HCl pH 1.6) and incubated for 15 min. Thereafter, the content of the donor chamber was converted to FaSSIF medium pH 6.5 by addition of 10 mL of FaSSIF concentrate media and stirring rate of 150 rpm. The receiver compartment contained 20 mL of PION acceptor buffer pH 7.4 with stirring rate of 150 rpm. The permeability was assessed across a gastrointestinal PAMPA membrane (Pion Inc UK Ltd, Forest Row, UK). The suspensions were loaded either at either 40 μg/mL for Ezetimibe or 30 μg/mL for Apalutamide using suspensions prepared at concentration of 5 mg/mL in 1 wt.-% PVPVA suspension vehicle. The temperature was set to 37° C. throughout the measurement. Incubation time was about 24 h. UV-Vis spectra were recorded at 30 s intervals at a wavelength of 293-320 nm using the Pion Rainbow Dynamic with either 10 mm tips for Ezetimibe or 5 mm tips for Apalutamide. API concentrations were calculated using second derivative to avoid interference of undissolved floating particles based on a standard curve (stock solution 5 mg/mL in ethanol). […]

- permeability versus bulk API: significantly better
Compound: O=C1[C@H](CC[C@H](O)c2ccc(F)cc2)[C@@H](c2ccc(O)cc2)N1c1ccc(F)cc1 [Eze, ezetimibe]
